Results as given in the Deep4Chem optical property database.
Several values for one entry are separate records, joined by “and”; a condition that tells them apart may be missing. Identical values can stand only once. One block for each compound: values may come before it.

Experiment: solvent given as SMILES

SMILES: c1ccc2c(c1)Oc1ccccc1N2c1ccc2c(c1)c1ccccc1n1c3ccccc3nc21
absorption maximum (in Cc1ccccc1): 376 nm

SMILES: CC(=O)[O-]
absorption maximum (in O): 210 nm

SMILES: c1ccc(-c2nc(-c3ccc(-c4nc(-c5ccccc5)c(-c5ccccc5)[nH]4)cc3)[nH]c2-c2ccccc2)cc1
absorption maximum (in C1CCOC1): 361 nm
absorption maximum (in CC#N): 355 nm and 358 nm
absorption maximum (in CC(=O)O): 360 nm
absorption maximum (in CC(C)=O): 360 nm
absorption maximum (in CCOC(C)=O): 359 nm
absorption maximum (in CCOCC): 359 nm
absorption maximum (in CO): 357 nm
absorption maximum (in CS(C)=O): 380 nm
absorption maximum (in ClC(Cl)Cl): 358 nm

SMILES: Clc1ccc(/C=C/c2ccc(-c3nc4c5cccnc5c5ncccc5c4[nH]3)cc2)cc1
absorption maximum (in C1CCOC1): 376 nm
absorption maximum (in CC#N): 368 nm
absorption maximum (in CO): 360 nm
absorption maximum (in ClCCl): 377 nm

SMILES: CCC1(CC)c2cc(C=O)ccc2-c2ccc(N(C)C)cc21
absorption maximum (in C1CCCCC1): 385 nm
absorption maximum (in CC#N): 385 nm
absorption maximum (in CCO): 388 nm
absorption maximum (in CCOCC): 379 nm
absorption maximum (in CS(C)=O): 395 nm
absorption maximum (in ClCCl): 392 nm
absorption maximum (in c1ccccc1): 388 nm

SMILES: Nc1cc2oc3cc(O)c(F)cc3c(=O)c2cc1F
absorption maximum (in CCO): 366 nm

SMILES: Cc1ccc(N2C(c3ccccc3NS(=O)(=O)c3ccc(C)cc3)=NC(c3ccccc3)C2c2ccccc2)cc1 (stereo not drawn)
absorption maximum (in Cc1ccccc1): 300 nm

SMILES: C[Si]1(C)c2cc(C#Cc3ccccc3)ccc2C=Cc2ccc(C#Cc3ccccc3)cc21
absorption maximum (in ClCCl): 403 nm

SMILES: CCN1c2ccc(/C=N/Nc3ccccn3)cc2Sc2cc(-c3ccccc3)ccc21
absorption maximum (in C1CCOC1): 379 nm
absorption maximum (in CS(C)=O): 387 nm
absorption maximum (in Cc1ccccc1): 382 nm
absorption maximum (in ClCCl): 384 nm

SMILES: CI
absorption maximum (in CCCCCC): 259 nm

SMILES: CCC1=C(C2=C(C3=C(CC)S(=O)(=O)c4cc(-c5ccc(C)s5)ccc43)C(F)(F)C(F)(F)C2(F)F)c2ccc(-c3ccc(C)s3)cc2S1(=O)=O
absorption maximum (in C1COCCO1): 374 nm

SMILES: COc1ccc(-c2cc3c(ccc4sc5ccc6sc(-c7ccc(C(C)=O)cc7)cc6c5c43)s2)cc1
absorption maximum (in ClCCl): 380 nm

SMILES: CCC(CC)c1ccc2cc3c([o+]c2c1)/C(=C/Cc1ccccc1)CCC3
absorption maximum (in CCO): 604 nm
absorption maximum (in ClC(Cl)Cl): 616 nm
absorption maximum (in ClCCl): 615 nm

SMILES: Cc1nc(-c2cc(F)ccc2O)n2c1CCCC2
absorption maximum (in ClCCl): 326 nm

SMILES: CCOC(=O)CCCCCn1c2ccc(N)cc2c(=O)c2cc(N)ccc21
absorption maximum (in O): 455 nm

SMILES: C1=C(c2ccccn2)[Si](c2ccccc2)(c2ccccc2)c2ccccc21
absorption maximum (in ClCCl): 339 nm

SMILES: N#Cc1c(N2c3ccccc3C(c3ccccc3)(c3ccccc3)c3ccccc32)cccc1N1c2ccccc2C(c2ccccc2)(c2ccccc2)c2ccccc21
absorption maximum (in Cc1ccccc1): 369 nm

SMILES: C#Cc1ccc2cc(/C=C/C(=O)OCC)c(=O)oc2c1
absorption maximum (in CCO): 360 nm

SMILES: Cc1cc(-n2c3ccccc3c3cc(C#N)ccc32)ccc1-c1ccc(S(=O)(=O)c2ccccc2)cc1C
absorption maximum (in Cc1ccccc1): 341 nm

SMILES: O=c1cc2cc(O)c3cccc4ccc(o1)c2c43
absorption maximum (in CC1CCCO1): 469 nm

SMILES: CC(=O)Nc1ccc(C2=C/C(=C\c3ccc(C#N)cc3)C(=O)N2)cc1
absorption maximum (in C1COCCO1): 456 nm

SMILES: ClC1=CN2C[n+]3cc(Cl)ccc3N=C2C=C1
absorption maximum (in CO): 433 nm

SMILES: Cc1cn(C)c(=O)nc1-n1cncn1
absorption maximum (in O): 323 nm

SMILES: COc1cc(/C=C/c2nc3ccccc3o2)c(OC)cc1/C=C/c1nc(C)nc(/C=C/c2cc(OC)c(/C=C/c3nc4ccccc4o3)cc2OC)n1
absorption maximum (in C1CCOC1): 431 nm
absorption maximum (in CC#N): 431 nm
absorption maximum (in ClC(Cl)Cl): 436 nm
absorption maximum (in ClCCl): 431 nm

SMILES: c1cc2ccc3cc4cccc5ccc6cc(c1)c2c3c6c54
absorption maximum (in ClCCl): 433 nm

SMILES: COCCC1=Cc2nc1ccc1[nH]c(cc1CCOC)c1nc(c(NC(=O)CCCC(=O)O)cc3[nH]c2cc3CCOC)C(CCOC)=C1
absorption maximum (in Cc1ccccc1): 645 nm

SMILES: CC/[NH+]=c1\cc2oc3cc(NCCOC(=O)C(NC(=O)OC(C)(C)C)C(C)C)c4ccccc4c3nc-2cc1C (stereo not drawn)
absorption maximum (in CCO): 590 nm
absorption maximum (in O): 590 nm

SMILES: C(/C=C/c1ccc(-n2c3ccccc3c3ccccc32)cc1)=C\c1ccncc1
absorption maximum (in C1COCCO1): 356 nm
absorption maximum (in CC#N): 350 nm
absorption maximum (in CCCCCCC): 360 nm
absorption maximum (in CO): 353 nm

SMILES: O=c1cccc2n1CN1C=C(Br)C=CC1=N2
absorption maximum (in CO): 436 nm

SMILES: COc1cc(OC)c2c(c1)c1c(c3ccc(C(C)(C)C)cc32)=[N+]2C(=Nc3c(-c4cc(OC)c(OC)c(OC)c4)c4c5cc(OC)cc(OC)c5c5cc(C(C)(C)C)ccc5c4n3[B-]2(F)F)C=1c1cc(OC)c(OC)c(OC)c1
absorption maximum (in Cc1ccccc1): 791 nm

SMILES: CN(CCO)c1ccc(/C=C/C2=C(C#N)C(C(C#N)C#N)OC2(C)C)cc1 (stereo not drawn)
absorption maximum (in CC#N): 586 nm
absorption maximum (in CC(C)=O): 574 nm
absorption maximum (in CCO): 579 nm
absorption maximum (in CCOC(C)=O): 565 nm
absorption maximum (in CN(C)C=O): 588 nm
absorption maximum (in CO): 575 nm
absorption maximum (in CS(C)=O): 595 nm
absorption maximum (in Cc1ccccc1): 562 nm
absorption maximum (in ClCCl): 575 nm
absorption maximum (in O): 587 nm

SMILES: C(#Cc1cc2ccc3cccc4ccc(c1)c2c34)c1ccccc1
absorption maximum (in Cc1ccccc1): 390 nm

SMILES: COc1cc2c3c4c(c5ccc(C(C)(C)C)cc5c5cc(C(C)(C)C)cc(c2c(OC)c1OC)c45)=[N+]1C3=Nc2c3c4cc(OC)c(OC)c(OC)c4c4cc(C(C)(C)C)cc5c6cc(C(C)(C)C)ccc6c(c3c54)n2[B-]1(F)F
absorption maximum (in Cc1ccccc1): 826 nm

SMILES: CCN(CC)c1ccc(-c2ccc(-c3nc4ccccc4c(=O)[nH]3)s2)cc1
absorption maximum (in CC#N): 404 nm
absorption maximum (in Cc1ccccc1): 410 nm

SMILES: CCCCCCCCN1c2ccccc2Sc2cc(/C=C/c3ccc(N(c4ccc(/C=C/c5ccc6c(c5)Sc5ccccc5N6CCCCCCCC)cc4)c4ccc(/C=C/c5ccc(/C=C/c6ccc(N(c7ccc(/C=C/c8ccc(N(c9ccccc9)c9ccccc9)cc8)cc7)c7ccc(/C=C/c8ccc(N(c9ccccc9)c9ccccc9)cc8)cc7)cc6)c6nsnc56)cc4)cc3)ccc21
absorption maximum (in C1CCOC1): 534 nm
absorption maximum (in CCOC(C)=O): 524 nm
absorption maximum (in CN(C)C=O): 528 nm
absorption maximum (in Cc1ccccc1): 533 nm
absorption maximum (in ClC(Cl)Cl): 534 nm
absorption maximum (in ClCCl): 533 nm

SMILES: F[B-]1(F)OC(c2ccc3ccccc3c2)=CC(c2ccc3ccccc3c2)=[O+]1
absorption maximum (in CC#N): 419 nm
absorption maximum (in ClC(Cl)(Cl)Cl): 412 nm

SMILES: CCCCCCCCCCCCNc1cccc2[n+]1[B-](F)(F)n1c(c3cccc4cccc1c43)=N2
absorption maximum (in C1CCOC1): 498 nm
absorption maximum (in CC#N): 493 nm
absorption maximum (in CCCCCC): 496 nm
absorption maximum (in Cc1ccccc1): 500 nm
absorption maximum (in ClCCl): 497 nm and 467 nm

Other lines, results leading:

absorption maximum (in C1CCCCC1): 350 nm
SMILES: CCCC1(CCC)c2ccccc2-c2ccc(-c3ccc4c(c3)C(CCC)(CCC)c3cc(-c5ccc6c(c5)C(CCC)(CCC)c5ccccc5-6)ccc3-4)cc21

absorption maximum (in C1CCCCC1): 355 nm
SMILES: C=CB1C=Cc2ccc3ccccc3c2N1

absorption maximum (in CCCCCCC): 162 nm
SMILES: C=C

absorption maximum (in CCO): 421 nm
absorption maximum (in ClCCl): 428 nm
absorption maximum (in O): 443 nm
SMILES: N#CC(C#N)=Cc1ccc(-c2cccc(-c3nc4ccccc4s3)c2O)o1

absorption maximum (in ClC(Cl)Cl): 422 nm
SMILES: CCCC1(CCC)c2cc(C=C(C#Cc3ccccc3)C#Cc3ccccc3)ccc2-c2ccc(C=C(C#Cc3ccccc3)C#Cc3ccccc3)cc21

absorption maximum (in CC#N): 339 nm
SMILES: c1ccc(-n2c(-c3ccc(-n4c5ccccc5c5ccccc54)cc3)nc3nccnc32)cc1

absorption maximum (in CC1CCCCC1): 327 nm
absorption maximum (in CC#N): 333 nm
absorption maximum (in CO): 335 nm
SMILES: COC(=O)C(NC(=O)OC(C)(C)C)c1ccc2oc(-c3cc(OC)c(OC)cc3OC)nc2c1 (stereo not drawn)

absorption maximum (in O): 278 nm
SMILES: [NH3+]C(Cc1ccc(O)c(O)c1)C(=O)[O-] (stereo not drawn)

absorption maximum (in C1CCCCC1): 342 nm
absorption maximum (in C1CCOC1): 338 nm
absorption maximum (in CC#N): 336 nm
absorption maximum (in CCOC(C)=O): 339 nm
absorption maximum (in CS(C)=O): 334 nm
absorption maximum (in ClC(Cl)Cl): 340 nm
SMILES: N#Cc1cc2ccccc2oc1=O

absorption maximum (in CC#N): 531 nm
absorption maximum (in CCCCCC): 536 nm
absorption maximum (in CCOC(C)=O): 534 nm
absorption maximum (in CO): 536 nm
absorption maximum (in ClCCl): 537 nm
SMILES: CCCSc1ccc2n1[B-](F)(F)[N+]1=CC=CC1=C2c1ccccc1

absorption maximum (in ClC(Cl)Cl): 571 nm
SMILES: CC(C)(C)c1ccc(Oc2c3c4c(cc(Oc5ccc(C(C)(C)C)cc5)c5c6c(Oc7ccc(C(C)(C)C)cc7)c(Oc7ccc(C(C)(C)C)cc7)c7c8c(cc(Oc9ccc(C(C)(C)C)cc9)c(c(c2Oc2ccc(C(C)(C)C)cc2)c45)c86)C(=O)OC7=O)C(=O)OC3=O)cc1

absorption maximum (in ClC(Cl)Cl): 526 nm
SMILES: CC(C)(C)[Si](C)(C)C#Cc1c2c(=O)c3ccccc3c2c(C#C[Si](C)(C)C(C)(C)C)c2c(=O)c3ccccc3c12

absorption maximum (in CC#N): 683 nm
SMILES: CN1/C(=C\C=C\C2=C3C=CC(c4ccccc4)=[N+]3[B-](F)(F)n3c2ccc3-c2ccccc2)Sc2ccccc21

absorption maximum (in CCCCCC): 428 nm
absorption maximum (in CO): 439 nm
SMILES: O=C1C=C(Nc2cccc(F)c2F)C(=O)c2ccccc21

absorption maximum (in CC#N): 384 nm
absorption maximum (in ClCCl): 386 nm
SMILES: COc1ccc(-c2cc3c(s2)c(-c2ccccc2)cc(=O)n3C)cc1

absorption maximum (in C1CCCCC1): 331 nm
SMILES: c1ccc(-c2c3c(cc4c2-c2ccccc2C4)-c2ccccc2C3)cc1

absorption maximum (in ClCCl): 399 nm
SMILES: COc1ccc(C2=Nc3cccc4[n+]3[B-](F)(O2)OC(c2ccc(OC)cc2)=N4)cc1

absorption maximum (in ClC(Cl)Cl): 526 nm
SMILES: CCCCCCCCCCCC#CC#CCCCCCCCCCN1C(=O)c2ccc3c4ccc5c6c(ccc(c7ccc(c2c37)C1=O)c64)C(=O)N(CCCCCCCCCC#CC#CCCCCCCCCCCCC)C5=O

absorption maximum (in ClCCl): 281 nm
SMILES: COc1ccc(-c2cc(-c3ccc(C#N)cc3)nn2C)cc1

absorption maximum (in C1CCOC1): 410 nm
absorption maximum (in CC#N): 410 nm
absorption maximum (in CCCCCCC): 402 nm
absorption maximum (in CS(C)=O): 423 nm
absorption maximum (in ClCCl): 414 nm
SMILES: C(=C\c1cnc2ccccc2n1)/c1ccc(N2CCCCC2)cc1

absorption maximum (in C1CCCCC1): 364 nm
SMILES: C1=Cc2ccc3ccccc3c2N(c2ccccc2)B1c1ccccc1

absorption maximum (in ClC(Cl)Cl): 315 nm
SMILES: CCCCCCc1ccc(-n2c3c4cccc(OC)c4nc(-c4ccc(C)cc4)c3c3c2c2c(-c4ccc(C)cc4)nc4c(OC)cccc4c2n3-c2ccc(CCCCCC)cc2)cc1

absorption maximum (in C1CCCCC1): 336 nm
SMILES: COc1ccc(C2=C(c3ccc(OC)cc3)C(C)(C)c3ccc4ccccc4c32)cc1
